Laboratory results taken from patent US11246818B2, “Peptides and compositions for use in cosmetics” (LIPOTRUE, S.L., priority 2017, dated 2022).
Residues, ends and D or L forms follow the SMILES beside them.

What was measured:
[1] = tested on: Primary human epidermal keratinocytes; experiment: Protection against lipoxidation induced by synthetic smoke (intracellular MDA); type: cell-based; conditions: synthetic smoke 48 h
Description: Primary human epidermal keratinocytes were seeded in 96-well plates in standard culture medium and, 24 hours later, subjected to a simultaneous treatment with synthetic smoke containing selected compounds from the particle phase (for example, cadmium and nicotine) and vapour phase (for example, formaldehyde (hereinafter, FA) and ethyl carbamate) of tobacco smoke and the analysed compound (Ac-SEQ ID NO: 1-NH2) for 48 h.
In addition, after treatment, lipoxidation was analysed by means of the levels of intracellular MDA, which were measured by the reaction between MDA and N-methyl-2-phenylindole (hereinafter, NMPI) rendering a stable blue chromophore with an absorption peak at 586 nm.

[2] = tested on: AhR; experiment: AhR immunostaining on human skin explants exposed to pollutants; conditions: composition of Example 8 applied topically, versus pollutants without peptide
Description: The protection efficacy of peptide Ac-SEQ ID NO: 1-NH2 against pollution aggression on human living explants was assessed by observation of the general morphology, immunostaining of AhR and HO-1 (both are known markers of oxidative stress as they have been related to anti-oxidative response) (Esser C., Bargen I., Weighardt H., Haarmann-Stemmann T., Krutmann J., Functions of the aryl hydrocarbon receptor in the skin, Semin Immunopathol (2013) 35:677-691; Kohen R., Nyska A., Oxidation of Biological Systems: Oxidative Stress Phenomena, Antioxidants, Redox Reactions, and Methods for Their Quantification, Toxicologic Pathology (2002) vol 30, no 6, 620-650).
Briefly, human skin explants from a person were put in culture under controlled conditions. 21 skin explants of an average diameter of 11 mm (±1 mm) were prepared and kept in survival in BEM culture medium at 37° C. in a humid, 5% CO2 atmosphere. The explants were distributed in 5 batches: explant control (Time=0), control batch, explants treated with the above-mentioned peptide, explants treated with pollutant and explants treated with pollutant and with the above-mentioned peptide. A composition containing Ac-SEQ ID NO: 1-NH2 in accordance with Example 8 was prepared and it was topically applied on days 0, 1, 3 and 4. […] Finally, image analyses and quantification were performed using Cell^D software (Olympus, Tokyo, Japan).

[3] = Trolox Equivalent Antioxidant Capacity (TEAC), ABTS Decolorization Assay; type: biochemical
Description: As positive controls of the assay, ascorbic acid 2-glucoside (hereinafter, AA-2G) and magnesium ascorbyl phosphate (hereinafter, MAP) were tested.
TEAC assay was used in this case. Said assay measures the antioxidant capacity of a given substance, as compared to the standard, Trolox, an analogue of Vitamin E.
Antioxidant capacity was measured using the ABTS Decolorization Assay. In this assay, the pre-formed radical monocation of 2,2′-azinobis-(3-ethylbenzothiazoline-6-sulfonic acid) (ABTS*+) was generated by oxidation of ABTS with potassium persulfate and was reduced in the presence of antioxidants (Ac-SEQ ID NO: 1-NH2, Ac-SEQ ID NO: 2-NH2, Ac-SEQ ID NO: 3-NH2 or Ferulic acid-SEQ ID NO: 2-NH2). The ABTS.+ has a blue-green color, with maximum absorptions at 650, 734 and 820 nm. Antioxidants in the sample reduce ABTS.+ suppressing this color production to a degree that is proportional to their concentrations and antioxidant capacity. Quantification of absorbance was conducted at 734 nm using a Polarstar Omega equipment (BMG Labtech).

[4] = tested on: Primary human epidermal melanocytes; experiment: Brightening activity: intracellular melanin content; type: cell-based; conditions: 7 days, kojic acid 10 and 50 μM
Description: Two concentrations of kojic acid were used as positive control.
Kojic acid was used as positive control.
Primary human epidermal melanocytes were incubated in 6-well plates for 4 days and then treated with the compounds to be analysed (Ac-SEQ ID NO: 1-NH2, Ac-SEQ ID NO: 2-NH2, Ac-SEQ ID NO: 3-NH2 or Ferulic acid-SEQ ID NO: 2-NH2) for 7 days. After treatment, cells were homogenized an intracellular melanin content was quantified by absorbance at 450 nm by Multiskan FC (Thermo Fisher Scientific, MA, USA).

[5] = tested on: HEKa cells; experiment: Modulation of the expression of antioxidant genes (RTqPCR); type: cell-based, human; conditions: 0.05 mg/mL, 24 hours
Text: Changes in gene expression levels are represented as a positive or negative fold-change with regard to the basal control (untreated cells). Bars from top to bottom in the y-axis refer to: CYP2R1 (Vitamin D 25-hydroxylase), NFE2L2 (Nuclear factor-like 2), HMOX1 (Heme oxygenase-1), GSTP1 (Glutathione S-transferase P), GSS (Glutathione synthetase), GPX1 (Glutathione peroxidase) and TRX (Thioredoxin). The x-axis refers to fold change versus or with regard to the basal control.
Briefly, HEKa cells were seeded in duplicate in 6-well plates at a density of 4×10^5 cells/well and maintained at standard culture conditions (37° C., 95% humidity, 5% CO2) for 24 hours. Then, cells were treated with non-cytotoxic concentrations of Ac-SEQ ID NO: 1-NH2 (0.05 mg/mL) for an additional 24 hours.
Untreated cells were used as basal control. Cells were then lysed for RNA extraction with a RNA purification commercial kit following manufacturer instructions (RNeasy mini kit; Qiagen; Netherlands). RNA was then quantified by nanodrop, adjusted in concentration and processed for retrotranscription to cDNA using a commercially available kit (High-Capacity cDNA Reverse Transcription kit; Thermofisher Scientific, USA). Resulting cDNA was used to perform a RTqPCR (Real Time Quantitative Polymerase Chain Reaction) using Taqman technology and a panel of probes designed to target specific genes related to melanogenesis and HEMn-HEKa and HEMn-HDFa communication.

SMILES: CC(=O)N[C@@H](CC(=O)O)C(=O)N[C@@H](Cc1ccc(O)cc1)C(=O)N[C@@H](CCCCN)C(=O)N[C@H](C(N)=O)C(C)C [Ac-SEQ ID NO: 1-NH2, Ac-Asp-Tyr-Lys-Val-NH2] (Ac-DYKV-NH2)
- lipoxidation (MDA) ([1]; lower tested concentration (0.01 mg/ml)): slight decrease (non-statistically significant)
- lipoxidation (MDA) ([1]; other two tested concentrations (0.05, 0.1 mg/ml)): higher, statistically significant, effect
- decrease in AhR (epidermal surface occupied) [2]: 16%
- trolox equivalents ([3]; 0.01 mg/mL): 15 µM
- trolox equivalents ([3]; 0.05 mg/mL): 24 µM
- trolox equivalents ([3]; 0.1 mg/mL): 94 µM
- brightening or whitening activity compared with kojic acid ([4]; all the concentrations tested (0.01, 0.05, 0.1 mg/ml)): significantly higher brightening or whitening activity
- increased brightening activity relative to the activity of the two concentrations of kojic acid ([4]; all the concentrations tested): two to more than four times
- CYP2R1 gene expression, fold change versus basal control [5]: 1.44 fold change
- GPX1 gene expression, fold change versus basal control [5]: 1.22 fold change
- GSS gene expression, fold change versus basal control [5]: 1.10 fold change
- GSTP1 gene expression, fold change versus basal control [5]: 1.13 fold change
- HMOX1 gene expression, fold change versus basal control [5]: 1.48 fold change
- NFE2L2 gene expression, fold change versus basal control [5]: 1.23 fold change
- TRX gene expression, fold change versus basal control [5]: 1.34 fold change
